Measurements taken from patent US20060025346A1, “Permeability enhancer” (priority 2004, published 2006).
Entries after “also recorded” stand apart in the source; their conditions may differ.

Legend:
[1] = system: MDCK cells
[2] = system: Caco-2 cell monolayer; details: literature reports; cited from earlier work

## CCCCCCCCCC(=O)[O-].[Na+] [sodium caprate]
[1]
  permeability enhancing effect on high molecular weight model substance FD-10 (relative Papp): nonspecifically increased the permeability; also recorded: marked permeability enhancing effect
  permeability enhancing effect on low molecular weight model substance Flu (relative Papp): nonspecifically increased the permeability; also recorded: marked permeability enhancing effect
  permeability enhancing effect on low molecular weight model substance LY (relative Papp): nonspecifically increased the permeability; also recorded: marked permeability enhancing effect
[2]
  side effects / cell damage due to relatively strong ability to open tight junctions: risk of cell damage have been observed
